Experiments:
[1] = tested on: Naïve CD4+ T cells, Th1 cells; experiment: CD4+ T cell differentiation under Th1 conditions (IFNγ, ELISA and FACS); type: cell-based, mice
Protocol: Naïve CD4^+ T cells were purified from mice spleens and lymph nodes using positive selection by magnetic beads (CD4 L3T4 Kit, Miltenyi Biotec, UK). The purified T cells were activated by plate-bound αCD3ε (1 μg/ml; 2C11) and αCD28 (3 μg/ml; 37.51) in the presence or absence of the compound of Example 1 or Cyclosporin A (Sigma Aldrich), and cultured for 72 hrs under Th1 conditions (IL-12 [20 ng/ml]+αIL-4 (11B1) [10 μg/ml]), 72 hrs under Th17 conditions (αIFNγ [10 μg/ml]+αIL-4 [5 μg/ml]+IL-6 [[…]]+TGFβ(5 ng/ml)), and 96 hrs under iTreg conditions (TGFβ (5 ng/ml)) at 37° C.
ELISA kits for mouse IFNγ and IL-17a were purchased from eBioscience (Thermo Fisher, UK) and performed in accordance to manufacturer's instructions using Corning® High Binding ELISA plates (Merck, CLS9018). All ELISAs were analysed using a Synergy MX microplate reader (BioTek).
Intracellular protein expression was evaluated by first restimulating the cells with phorbol-12-myristate 13-acetate (PMA)(10 ng/ml) (Sigma Aldrich), ionomycin (1 μg/ml) (Sigma Aldrich) and Brefeldin A (5 μg/ml) (eBioscience) for 4-6 hours at 37° C. […] Fc block (93) and all fluorescence dye labelled antibodies used αCD4 (GK1.5), αIFNγ (XMG1.2), αIL-17a (17B7), αFOXP3 (NRRF-30; FJK-16S) were purchased from eBiosciences (Thermo Fisher, UK). […]

MV-4-11 = experiment: In vitro potency against leukemia cell lines (CellTiter Glo); type: cell-based; conditions: Homo sapiens, MV4-11; 72 hours; read-out: absolute IC50 MV-4-11
Protocol: (§1) To prepare the complete medium FBS and appropriate additives were added according to the information sheet provided by the vendor and mixed gently. The cell name and complete medium and passage number marked on the flask were checked, and the culture medium removed and discarded using a vacuum pump. […] 3.0 ml of Trypsin-EDTA solution was added to the flask and the cells observed under an inverted microscope until cell layer is dispersed. 8.0 ml of complete growth medium was added and the cells aspirated by gently pipetting. The cell suspension was transferred to a centrifuge tube and centrifuged at 800-1000 rpm for 3-5 minutes. The supernatant was discarded using a vacuum pump, and an appropriate volume of complete medium added. The cell pellet was suspended by gently pipetting, and the cell numbers counted with Vi-cell XR and the cells adjusted to appropriate density. 100 μL of cell suspension to 96-well opaque-walled clear bottom plates was added according to the planned plate layout and the plates placed in the CO2 incubator overnight.
(§2) c. […] Meanwhile the day 0 plate was measured by Cell TiterGlo as listed below.
(§3) d. Cells were incubated with the compounds for 72 h at 5% CO2, 37° C.
(§4) The plate and its contents were equilibrated to room temperature for approximately 30 minutes, after which 100 μL of CellTiter-Glo reagent was added to the assay plate by Multidrop Combi instrument and the contents mixed for 10 minutes on an orbital shaker to induce cell lysis. The plate was allowed to incubate at room temperature for 10 minutes to stabilize luminescent signal and the clear bottom pasted with white back seal and the luminescence recorded with Enspire with the settings: Luminescence, measurement time 0.1 ms.
(§5) In all cases, the incubation time was 72 hours and the cell lines were grown as a suspension. The seeding density was […] in a 96 well plate.

Molm-13 = experiment: as above; type: cell-based; conditions: Homo sapiens, 72 hours, read-out: absolute IC50 Molm-13
Protocol: as §1, §2, §3, §4, §5

KG-1 = experiment: as above; type: cell-based; conditions: Homo sapiens, 72 hours, read-out: absolute IC50 KG-1
Protocol: as §1, §2, §3, §4, §5

Jeko-1 = experiment: as above; type: cell-based; conditions: Homo sapiens, 72 hours, read-out: absolute IC50 JeKo-1
Protocol: as §1, §2, §3, §4, §5

Kasumi-3 = experiment: as above; type: cell-based; conditions: 72 hours, read-out: absolute IC50 Kasumi-3
Protocol: as §1, §2, §3, §4, §5

HL-60 = experiment: as above; type: cell-based; conditions: Homo sapiens, 72 hours, read-out: absolute IC50 HL-60
Protocol: as §1, §2, §3, §4, §5

OCI-M1 = experiment: as above; type: cell-based; conditions: 72 hours, read-out: absolute IC50 OCI-M1
Protocol: as §1, §2, §3, §4, §5

## CN1CCOc2c1c(N[C@H]1CC[C@@](C)(O)CC1)nn1c(-c3cccc(OC(F)(F)F)c3)nnc21 [Example 1, 1-Methyl-4-[6-methyl-3-(3-trifluoromethoxy-phenyl)-7,8-dihydro-6H-9-oxa-1,2,3a,4,6-pentaaza-cyclopenta[a]naphthalen-5-ylamino]-cyclohexanol]
[1]; 12.5 nM, 72 hrs Th1 conditions
  pro-inflammatory Th1 responses: significant suppression
[1]; across a range of concentrations, ELISA and FACS
  Differentiation of Th1 cells in vitro as determined by the secretion of IFNγ: inhibited
MV-4-11
  IC50: 907 nM
Molm-13
  IC50: 9.34 µM
KG-1
  IC50: 715 nM
Jeko-1
  IC50: 6.54 µM
Kasumi-3
  IC50: 232 nM
HL-60
  IC50: 8.75 µM
OCI-M1
  IC50: > 10 µM

Source: US20250042918A1, “COMPOUNDS” (Fundación Del Sector Públlco Estatal Centro Nacional De …, priority 2021, published 2025)
